# Results from patent publication US10611797B2, “Peptide having anticancer activity, and pharmaceutical composition and dietary supplement composition for preventing and treating cancer, both of which contain same as active ingredient” (IUCF-HYU (INDUSTRY-UNIVERSITY COOPERATION FOUNDATION …, priority 2015, dated 2020).
# Tests used:
# [1] = test system: cancer cell lines (HepG2, Hep3B, 293T, MCF-7, MDA-MB-231, K562, HEL, HL60, U251, U373MG, U87MG); assay: Microscopic observation of growth inhibition and apoptosis, cancer cell lines; type: cell-based, human; conditions: 2 μM, 48 h
# Experimental: (§3) Liver cancer cell lines (HepG2, Hep3B), a human embryonic kidney cell line (293T), breast cancer cell lines (MCF-7, MDA-MB-231), blood tumor cell lines (K562, HEL, HL60), glioblastoma cell lines (U251, U373MG, U87MG), a mammary epithelial cell line (MCF10A), a lung epithelial cell line (BEAS2B), human mesenchymal stem cells (hMSCs), and mouse primary T cells (resting and activated T cells) were inoculated into 96-well plates at a density of 3,000 cells/well, supplemented with 50 μl of culture solution, and cultured at 37° C. and 5% CO2 for 1 h. […] After completion of the culture, cells were observed under an inverted phase contrast microscope and their morphological changes were imaged.
# MDA-MB-231 cell line = assay: Electron microscopy of cell morphology, MDA-MB-231; type: cell-based, human; conditions: 2 μM, 24 and 48 h
# Source text: The collected cells were washed once with physiological saline.
# CP2c = assay: Luciferase reporter assay of CP2c transcriptional activity in 293T cells; type: cell-based, human; conditions: 2 μM, 48 h, wild-type CP2c binding sites, compared with FQI1
# Experimental: 293T cells were inoculated into a 12-well plate at a density of 1×10^5 cells/well. 12 h after inoculation, cells were transfected with combinations of a reporter vector (the wild-type reporter links the enhancer sequence of the GATA-1 gene including twice repeated CP2c-binding sites to the upstream of the luciferase gene and Mut 1/3, Mut 2/4, and Mut 1-4 reporters cause mutations of the CP2c binding sites present in the enhancer sequence) and various Flag-CP2c, HA-CP2b, and HA-PIAS1 expression vectors by using the effectene method. After 1-h culture, cells were treated with FQI1, Peptide 5C, and Peptide 5-2C at concentrations of 2 μM, followed by 48-h culture. Cells were harvested and lysed in 250 μl of passive cell lysis buffer (Promega) to obtain an extract. 20 μl of the cell extract and a dual-luciferase assay kit (Promega) were used to measure the activity of the labeled luciferase gene in GLOMAX (Promega) (the expression of each expression vector was confirmed by Western blotting).
# [2] = test system: MCF-7, 293T, MDA-MB-231 mammospheres; assay: Mammosphere culture of cancer cell lines, microscopy; type: cell-based, human; conditions: 2 μM, 4 days
# Source text: Cancer cell lines (MCF-7, 293T, MDA-MB-231) were inoculated at a density of 1×10^4 cells/ml into polyHEMA-coated 100 phi Petri dishes. […] Cells were observed under an inverted phase contrast microscope once a day and their morphological changes were imaged. […] Mammosphere culture of cancer cell lines is known to increase the number of cancer stem cells.
# [3] = test system: human embryonic stem cell line (H9) and co-cultured cells; assay: Microscopy of human embryonic stem cell line (H9) in co-culture; type: cell-based
# Experimental: Two colonies of a human embryonic stem cell line (H9) per well were inoculated into 96-well plates on which normal embryonic epithelial cells or embryonic epithelial cells fluorescently stained with rhodamine were plated, followed by culture for 24 h.
# [4] = test system: normal cell lines (MCF10A, BEAS2B, hMSCs, mouse primary T cells)
# Experimental: as §3
# [5] = test system: human embryonic kidney cancer cell line (293T); assay: MTT cell viability, 293T; type: cell-based; conditions: 0-10 μM, 24-96 h
# Experimental: (§4) Liver cancer cell lines (HepG2, Hep3B) were inoculated into 96-well plates at a density of 3000 cells/well, and then 50 μl of culture solution was added thereto. Cells were cultured at 37° C. and 5% CO2 for 1 h. […] Cells were cultured at 37° C. and 5% CO2 for 24, 48, 72, and 96 h. After completion of the culture, the remaining culture solution was removed from the well plates, the cultures were diluted with MTT solution (3-(4,5-dimethylthiazol-2-yl)-2,5-diphenyltetrazole bromide) to a final density of 500 μg/ml, and cells were cultured at 37° C. and 5% CO2 for 3 h. The remaining MTT solution was removed and 150 μl of dimethyl sulfoxide (DMSO) was added. The reaction was carried out at room temperature for 20 min. After completion of the reaction, absorbance was measured using a microplate reader.
# [6] = test system: CD34+ hematopoietic progenitor cells (HPCs); assay: Microscopy of hematopoietic progenitor cells and cells differentiating into erythrocytes; type: cell-based, human; conditions: up to 10 μM, 72 h; days 3, 7, 14 of differentiation
# Experimental: Cells were observed under an inverted phase contrast microscope and their morphological changes were imaged. The CD34+ hematopoietic progenitor cells were cultured in IMDM media containing 1% BSA. For differentiation induction into erythrocytes, cells were cultured with EPO, SCF, IL-3, and hydrocortisone for the first 7 days, and thereafter, cultured in media supplemented with EPO, SCF, and IL-3 only.
# [7] = test system: breast cancer cell lines (MCF7, MDA-MB-231); assay: MTT cell viability, breast cancer cell lines; type: cell-based, human; conditions: 0-10 μM, 24-96 h
# Experimental: as §4
# [8] = test system: glioblastoma cell lines (U343, U373MG, U251, U87MG); assay: IC50 of Peptide 5-2C over time in glioblastoma cell lines; type: cell-based, human; conditions: one-time treatment
# Experimental: After one-time treatment of various glioblastoma cell lines (U343, U373MG, U251, and U87MG) with Peptide 5-2C, IC50 values were measured with time using the Graph Prism Pad 6 program.
# [9] = test system: human blood cancer cell lines (K562, HEL, HL60); assay: MTT cell viability, human blood cancer cell lines; type: cell-based; conditions: 0-10 μM, 24-96 h
# Experimental: as §4
# [10] = test system: liver cancer cell lines (HepG2, Hep3B); assay: MTT cell viability, liver cancer cell lines; type: cell-based, human; conditions: 0-10 μM, 24-96 h
# Experimental: as §4
# [11] = test system: A431 human epidermoid carcinoma cell line tumors; assay: Mouse model transplanted with A431 epidermoid carcinoma cell line; type: in vivo; conditions: 1.7 and 3.5 mg/kg, tail vein, every other day, five times, day 13
# Experimental: (§1) After the tumors were weighed, the tumors and the major organs were stained with 4% formaldehyde. Tissue slices were prepared through paraffin section and stained with hematoxylin/eosin. Acquired data were statistically analyzed using the Excel program.
# [12] = test system: U343 glioblastoma cell line tumors; assay: Mouse model transplanted with U343 glioblastoma cell line; type: in vivo; conditions: 3 mg/kg directly into tumor sites every three days, day 70, vs physiological saline
# Experimental: U343 glioblastoma cell line (2.5×10^6 cells/50 μl) was injected subcutaneously into the backs of 5-week-old male BALB/C nude mice (n=6/group), Peptide 5-2C (3 mg/kg) was directly injected into the tumor sites every three days from the time when the tumor sizes increased to about 8 mm^2, the body weights of the mice and the volumes of the tumors were measured, the mice were sacrificed on day 70 after the peptide injection, and the tumors, blood, and major organs were excised. The tumor sizes were measured using a vernier calipers and the tumor volumes were calculated by (major axisxminor axis^2)/2. Peripheral blood was collected from the ophthalmic artery of each mouse using a microcapillary coated with EDTA and stored in a sample tube coated with 5.4 mg EDTA. The tumors and the major organs were excised by dissection. The collected blood was subjected to a fundamental complete blood cell count (CBC) using a Coulter LH 750 Hematology analyzer. After the tumors were weighed, the tumors and the major organs were stained with 4% formaldehyde. Tissue slices were prepared through paraffin section and stained with hematoxylin/eosin. Acquired data were statistically analyzed using the Excel program.
# [13] = test system: MDA-MB-231 cell line (LM1 cells) tumors and lung metastasis; assay: Mouse model transplanted with MDA-MB-231 (LM1) breast cancer cell line; type: in vivo
# Experimental: as §1, with “The collected blood was subjected to a fundamental CBC using a Coulter LH 750 Hematology analyzer. After” for “After”
# MEL cell line = assay: Cell cycle analysis by FACS, MEL; type: cell-based, mouse; conditions: 0, 1, 2, 3, 10 μM, 48 h
# Experimental: (§2) 5×10^5 cells of each of MEL, K562, MCF-10A, and MDA-MB-231 cell lines were inoculated into 100 mm dishes. 24 h after inoculation, cells were treated with Peptide 5-2C such that the final concentrations were 0, 1, 2, 3, and 10 μM. 48 h after Peptide 5-2C treatment, cells were collected by trypsin treatment. Thereafter, 1×10^6 cells were suspended in 0.5 ml PBS and dissociated into single cells by pipetting. The cell suspension was transferred to a centrifugal tube containing 4.5 ml of 70% ethanol and allowed to stand at 4° C. for 2 h to immobilize the cells. A cell sediment was obtained by centrifugation, washed with 5 ml of PBS solution, sufficiently suspended in 1 ml of PI staining solution, and stained in the dark for 30 min. Cell fluorescence was measured in BD FACSAria and cell cycle was analyzed using the software provided from the same company.
# MCF-10A cell line = assay: Cell cycle analysis by FACS, MCF-10A; type: cell-based, human; conditions: 0, 1, 2, 3, 10 μM, 48 h
# Experimental: as §2
# [14] = test system: human embryonic stem cells (hESCs, H9)
# Source text: MEF cells labeled with rhodamine were often used to distinguish them from hESC-derived cells.
# [15] = test system: glioblastoma cell lines (U251, U87MG, U343); assay: MTT cell viability, glioblastoma cell lines; type: cell-based, human; conditions: 0-10 μM, 24-96 h
# Experimental: as §4
# [16] = test system: K562 cell line and MDA-MB-231 cell line; assay: Cell cycle analysis by FACS, K562 and MDA-MB-231; type: cell-based, human; conditions: 0, 1, 2, 3, 10 μM, 48 h
# Experimental: as §2
# [17] = test system: human mesenchymal stem cells (hMSC)
# MCF7 cell line = assay: Western blotting of cell cycle-related marker proteins in MCF7; type: cell-based, human; conditions: 2 μM for 0-72 h; 1, 2, 3 μM for 48 h
# Experimental: 1×10^5 cells of MCF7 breast cancer cell line were inoculated into a 6-well plate. 24 h after inoculation, cells were treated with Peptide 5-2C at a final concentration of 2 μM. After 0, 24, 48, and 72 h, cell extracts were collected in the same manner as in Example 6. Western blotting was performed using various antibodies against cell cycle-related marker genes. On the other hand, cell extracts were obtained from the groups treated with Peptide 5-2C at final concentrations of 1, 2, and 3 μM for 48 h and Western blotting was performed in the same manner.
# [18] = 1.7 and 3.5 mg/kg, tail vein, every three days, five times, day 30, vs control
# Experimental for MCF10A cell line: 1.5×10^6 cells of MDA-MB-231 cell line and 5×10^5 cells of MCF10A cell line were inoculated into 100 mm dishes. […] After culture for 24 and 48 h, cells were collected. The culture solution was centrifuged and surface adherent cells were collected by trypsin treatment. The collected cells were washed once with physiological saline. The cell sediment was directly treated twice with 2.5% aqueous glutaraldehyde solution (each for 10 min). Samples for electron microscopy were prepared and imaged in accordance with general methods.
sequence,measurement,setting,value
"NYPQRPCRGDKGPDC [Peptide 5-2C, Ac-NYPQRPCRGDKGPDC-Amide]",growth inhibition and apoptosis induction of cancer cell lines (microscopy),[1],specifically inhibited the growth of the cancer cell lines and induced apoptosis
same,intracellular structural abnormalities in MDA-MB-231 (electron microscopy),MDA-MB-231 cell line,significantly different intracellular structural abnormalities were observed in the Peptide 5-2C-treated group compared to in the FQI1-treated group
same,CP2c-mediated transcriptional activity (luciferase reporter),CP2c,effectively inhibit CP2c-mediated transcriptional activity compared to FQI1
same,formation of mammospheres and cell growth,[2],the formation of mammospheres was effectively inhibited and cell growth was decreased
same,death of embryonic stem cells and co-cultured cells,[3],none of the embryonic stem cells and the co-cultured cells died
same,effect on normal cell lines (microscopy),[4],without substantially affecting the normal cell lines
same,"relative viability (MTT), 293T, compared with FQI1",[5],inhibited the growth of the glioblastoma cell lines and induced apoptosis similarly to FQI1
same,growth inhibition and apoptosis of HPCs and cells differentiating into erythrocytes (microscopy),[6],growth inhibition and apoptosis of the cells were not observed
same,intracellular structural abnormalities in MCF10A (electron microscopy),MCF10A cell line,no intracellular structural abnormalities were observed
same,"relative viability (MTT), breast cancer cell lines, compared with FQI1",[7],more effectively inhibited the growth of the breast cancer cell lines and induced apoptosis than FQI1
same,IC50 at 48 h compared with 96 h,[8],the IC50 values after 48 h were similar to those after 96 h
same,"relative viability (MTT), K562, HEL, HL60, compared with FQI1",[9],slightly effectively inhibited the growth of the glioblastoma cell lines and induced apoptosis compared to FQI1
same,"relative viability (MTT), liver cancer cell lines, compared with FQI1",[10],more effectively inhibited the growth of the liver cancer cell lines and induced apoptosis than FQI1
same,histologic/anatomic characteristics of the major organs,[11],no significant changes in the histologic/anatomic characteristics of the major organs
same,reduction of tumor volume,[11],≥ 70%
same,reduction of tumor weight,[11],≥ 60%
same,"body weight, major CBC indices, histologic/anatomic characteristics of major organs",[12],"there were no differences in the weight of the mice, the major CBC indices of the mice, and the histologic/anatomic characteristics of the major organs"
same,reduction of tumor volume,[12],~60%
same,reduction of tumor weight,[12],~60%
same,reduction of number of tumor foci metastasized to the lung,[13]; [18],~50%
same,reduction of tumor weights,[13]; [18],~30%
same,number of leukocytes,[13]; control tumor mice had twice the number of normal mice,close to the normal value
same,number of cells in subG1 phase in MEL,MEL cell line,the number of cells in the subG1 phase was significantly increased only at high concentrations
same,cell cycle changes in MCF-10A,MCF-10A cell line,no substantial changes in cell cycle were observed
same,cytotoxicity (MTT) in hESCs,[14],no substantial cytotoxicity even at high concentrations
same,"relative viability (MTT), glioblastoma cell lines, compared with FQI1",[15],more effectively inhibited the growth of the glioblastoma cell lines and induced apoptosis than FQI1
same,cell cycle phase distribution in K562 and MDA-MB-231,[16],"the number of cells in the S phase was decreased, the number of cells in the G2/M phase was increased, and an increase in the number of cells in the subG1 phase was dependent on the concentration of Peptide 5-2C"
same,cytotoxicity (MTT) in hMSC,[17],no substantial cytotoxicity even at high concentrations
same,expression of cell cycle-related marker proteins,MCF7 cell line,"the expressions of Cyclin E, p21, and p53 increased gradually and the expressions of CDK1 and Cyclin B1 decreased gradually"
